Measurements as given in patent US20050101595A1, “N-containing cycloalkyl-substituted amino-thiazole derivatives and pharmaceutical compositions for inhibiting cell proliferation and methods for their use” (PFIZER INC., priority 2003, published 2005).
Where a name gives a salt, the structure may show the parent alone. Read-outs that look alike come from different tables or passages of the source.

Assays:
CDK2/Cyclin A = CDK2/Cyclin A (Homo sapiens, UniProt P24941); assay: Inhibition of CDK2/Cyclin A Retinoblastoma Kinase Activity; assay type: biochemical; conditions: for Ki: apparent Ki, CDK2/proteolyzed cyclin A, Rb fragment substrate, 25 μM ATP
Summary of the method: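 CDK2 (10 or 19 nM), insect-cell expressed, gel-filtration purified with truncated cyclin A; Rb fragment substrate; 25 μM ATP; 10 mM HEPES pH 7.4, 10 mM MgCl2; 30° C, 60 or 75 min; EDTA stop; phosphocellulose/nitrocellulose capture, phosphorimager. % inhibition vs DMSO control, no-enzyme background subtracted.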

[1] = biological target: human CDK4 and genetically truncated (1-264) cyclin D3 (Homo sapiens, UniProt P11802); assay: Inhibition of CDK4/Cyclin D Retinoblastoma Kinase Activity; assay type: biochemical; conditions: for Ki: apparent Ki, CDK4/truncated cyclin D3, Rb fragment substrate, 25 μM ATP
human CDK4 and genetically truncated (1-264) cyclin D3, sequence (P11802 whole entry, the tested form may be a part): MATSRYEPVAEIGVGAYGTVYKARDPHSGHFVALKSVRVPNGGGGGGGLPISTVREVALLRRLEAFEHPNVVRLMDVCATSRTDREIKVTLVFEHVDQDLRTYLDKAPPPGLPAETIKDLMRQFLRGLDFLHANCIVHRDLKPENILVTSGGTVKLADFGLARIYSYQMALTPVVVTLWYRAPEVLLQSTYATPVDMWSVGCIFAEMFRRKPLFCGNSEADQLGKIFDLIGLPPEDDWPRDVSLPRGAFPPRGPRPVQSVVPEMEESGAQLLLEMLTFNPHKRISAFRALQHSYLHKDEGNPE
human CDK4 and genetically truncated (1-264) cyclin D3, sequence (P30281 1-264 partner): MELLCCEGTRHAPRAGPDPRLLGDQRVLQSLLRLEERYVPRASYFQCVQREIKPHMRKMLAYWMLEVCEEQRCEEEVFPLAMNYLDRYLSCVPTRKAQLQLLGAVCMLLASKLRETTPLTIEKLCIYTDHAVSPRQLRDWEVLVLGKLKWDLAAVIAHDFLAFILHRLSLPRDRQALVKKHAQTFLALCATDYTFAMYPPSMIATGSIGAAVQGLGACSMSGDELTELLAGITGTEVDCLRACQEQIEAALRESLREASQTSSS
Summary of the method: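 The enzyme complex (5 nM), expressed in co-infected insect cells, was incubated with recombinant Rb fragment, 25 μM radiolabelled ATP and 2% DMSO at 30 °C. Reactions were stopped with EDTA after 20 minutes, or 60 minutes for tight-binding inhibitors. Apparent Ki values came from competitive inhibition fits.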

HCT-116 cell line = assay: Inhibition of cell growth, tetrazolium salt (MTT) assay; assay type: cell-based; conditions: for IC50: Homo sapiens, HCT-116, 120 h, MTT, three to five days, read-out: HCT-116 IC50; for HCT-116 % Inhibition at 0.25 μM: 0.25 μM compound
Summary of the method: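 McCoy's 5A cultures; 4 h pre-incubation; compound dilutions in 0.5% v/v DMSO; 3–5 d, 37° C, 5% CO2; MTT 0.2 mg/mL final, 4 h; formazan dissolved in DMSO, A540; vs 0.5% DMSO vehicle.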

[2] = 0.1 μM compound, HCT-116, Table 3

Row | Structure (SMILES) | Ki (CDK2/Cyclin A) | Ki [1] | IC50 (HCT-116 cell line; first HCT-116 column (c4)) | IC50 (HCT-116 cell line; second HCT-116 column (c5)) | CDK2 % Inhibition at 0.03 μM (CDK2/Cyclin A; at 0.03 μM) | CDK4 % Inhibition at 0.03 μM ([1]; at 0.03 μM) | HCT-116 % Inhibition at 0.1 μM (HCT-116 cell line; HCT-116 cells, at 0.1 μM) | HCT-116 5 Inhibition at 0.25 μM (HCT-116 cell line; HCT-116 cells) | further results
1 | CN(C)CCN(C)Cc1ccc(S(=O)(=O)N2CCC(Nc3nc(N)c(C(=O)c4c(F)cccc4F)s3)CC2)cc1 [Example J9, 1-{4-Amino-2-[1-(4-{[(2-dimethylamino-ethyl)-methyl-amino]-methyl}-benzenesulfonyl)-piperidin-4-ylamino]-thiazol-5-yl}-1-(2,6-difluoro-phenyl)-methanone Hydrochloride Salt.] | 2.4 nM | 0.85 nM | 130 nM | 320 nM | – | – | – | – | –
2 | Nc1nc(NC2CCN(C(=O)c3cccc([N+](=O)[O-])c3)CC2)sc1C(=O)c1c(F)cccc1F [Example C12, 1-(4-Amino-2-{1-[1-(3-nitro-phenyl)-methanoyl]-piperidin-4-ylamino}-thiazol-5-yl)-1-(2,6-difluoro-phenyl)-methanone] | 59 nM | 12 nM | 220 nM | 510 nM | – | – | – | – | –
3 | COc1ccc(S(=O)(=O)N2CCC(Nc3nc(N)c(C(=O)c4c(F)cccc4F)s3)CC2)cn1 [Example F22, 1-{4-Amino-2-[1-(6-methoxy-pyridine-3-sulfonyl)-piperidin4-ylamino]-thiazol-5-yl}-1-(2,6-difluoro-phenyl)-methanone] | 0.84 nM | 1.2 nM | 80 nM | 230 nM | – | – | – | – | –
4 | Nc1nc(NC2CCN(S(=O)(=O)c3ccc(SCCc4ccccn4)nc3)CC2)sc1C(=O)c1c(F)cccc1F [Example L3, 1-(4-Amino-2-{1-[6-(2-pyridin-2-yl-ethylsulfanyl)-pyridine-3-sulfonyl]-piperidin-4-ylamino}-thiazol-5-yl)-1-(2,6-difluoro-phenyl)-methanone Hydrochloride.] | 0.68 nM | 1.2 nM | 350 nM | > 500 nM | – | – | – | – | –
5 | N#Cc1c(Cl)cccc1Oc1ccc(S(=O)(=O)N2CCC(Nc3nc(N)c(C(=O)c4c(F)cccc4F)s3)CC2)cc1 [Example P52] | – | – | – | – | – | – | – | – | CDK2 % Inhibition at 0.03 μM (CDK2/Cyclin A; 0.03 μM compound, Table 3): 49%; CDK4 % Inhibition at 0.03 μM ([1]; 0.03 μM compound, Table 3): 47%; HCT-116 % Inhibition at 0.1 μM (HCT-116 cell line; [2]): 16%; HCT-116 % Inhibition at 0.25 μM (HCT-116 cell line; HCT-116, Table 3): 22%
6 | Nc1nc(NC2CCN(S(=O)(=O)c3c(Cl)nc4sccn34)CC2)sc1C(=O)c1c(F)cccc1F [Example P79] | – | – | – | – | – | – | – | – | CDK2 % Inhibition at 0.03 μM (CDK2/Cyclin A; 0.03 μM compound, Table 3): 53%; CDK4 % Inhibition at 0.03 μM ([1]; 0.03 μM compound, Table 3): 44%; HCT-116 % Inhibition at 0.1 μM (HCT-116 cell line; [2]): 10%; HCT-116 % Inhibition at 0.25 μM (HCT-116 cell line; HCT-116, Table 3): 18%
7 | Nc1nc(NC2CCN(S(=O)(=O)CCN3CCCC3c3ccccc3)CC2)sc1C(=O)c1c(F)cccc1F (centres unmarked) [Example K29, Trifluoroacetic Acid Salt] | 3.7 nM | 1.6 nM | 160 nM | 510 nM | – | – | – | – | –
8 | Nc1nc(NC2CCN(C(=O)c3c(F)cccc3F)CC2)sc1C(=O)c1c(F)cccc1F [Example Q12] | – | – | – | – | – | – | – | – | CDK2 % Inhibition at 0.03 μM (CDK2/Cyclin A; 0.03 μM compound, Table 4): −20%; CDK4 % Inhibition at 0.03 μM ([1]; 0.03 μM compound, Table 4): 22%; HCT-116 % Inhibition at 0.1 μM (HCT-116 cell line; 0.1 μM compound, HCT-116, Table 4): 3%; HCT-116 % Inhibition at 0.25 μM (HCT-116 cell line; HCT-116, Table 4): 46%
9 | COc1ccc(S(=O)(=O)N2CCC(Nc3nc(N)c(C(=O)c4c(F)cccc4F)s3)CC2)cc1OC [Example F8, 1-{4-Amino-2-[1-(3,4-dimethoxy-benzenesulfonyl)-piperidin-4-ylamino]-thiazol-5-yl}-1-(2,6-difluoro-phenyl)-methanone] | < 1 nM | 3 nM | 160 nM | 290 nM | – | – | – | – | –

Now from value to molecule, other results behind:

Row | Ki (CDK2/Cyclin A) | Ki [1] | IC50 (HCT-116 cell line; first HCT-116 column (c4)) | IC50 (HCT-116 cell line; second HCT-116 column (c5)) | CDK2 % Inhibition at 0.03 μM (CDK2/Cyclin A; at 0.03 μM) | CDK4 % Inhibition at 0.03 μM ([1]; at 0.03 μM) | Structure (SMILES) | HCT-116 % Inhibition at 0.1 μM (HCT-116 cell line; HCT-116 cells, at 0.1 μM) | HCT-116 5 Inhibition at 0.25 μM (HCT-116 cell line; HCT-116 cells) | further results
10 | – | – | – | – | 33% | 51% | CCCc1c(C(=O)N2CCC(Nc3nc(N)c(C(=O)c4c(F)cccc4F)s3)CC2)cnn1-c1ccccc1 [Example R71] | 0% | 44 | –
11 | – | – | – | – | 4% | 18% | Nc1nc(NC2CCN(C(=O)c3ccccc3)CC2)sc1C(=O)c1c(F)cccc1F [Example R103] | 0% | 45 | –
12 | – | – | – | – | −15% | 19% | CC(Oc1ccccc1)C(=O)N1CCC(Nc2nc(N)c(C(=O)c3c(F)cccc3F)s2)CC1 (centres unmarked) [Example R9] | 5% | 37 | –
13 | – | – | – | – | 37% | 49% | Cc1ccc(Oc2ncccc2C(=O)N2CCC(Nc3nc(N)c(C(=O)c4c(F)cccc4F)s3)CC2)cc1 [Example R45] | 2% | 36 | –
14 | – | – | – | – | 32% | 69% | Nc1nc(NC2CCN(C(=O)c3ccc(N=Nc4ccccc4)cc3)CC2)sc1C(=O)c1c(F)cccc1F [Example R13] | 0% | 42 | –
